Assay results from the supplement of paper PMC10307832.

Experiments:
Experiment in all cases: relative viability (nuclei count vs DMSO), 5 days (fraction); higher = more cells survive
[1] = compound: Cc1ccc(-n2nc(C(C)(C)C)cc2NC(=O)Nc2ccc(OCCN3CCOCC3)c3ccccc23)cc1 [Doramapimod] + COc1cccc2cc(-c3nc([C@H]4CC[C@H](C(=O)O)CC4)n4ncnc(N)c34)[nH]c12 [OSI-027] (partner 0.5 µM)
Outline: (§1)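 A single step with final 0.05% Triton X-100, 1% formaldehyde and 1 ug/ml Hoechst fixed the cells and stained nuclei 5 days after treatment. Lung cancer cell lines in 1536-well plates had been treated by pin tool the day after seeding with one drug alone or a fixed anchor-drug dose plus five library-drug doses (not always all listed) in √10 steps, and nuclei were counted on 4× images. Relative viability is the ratio of nuclei in treated wells to nuclei in vehicle wells, taken as the median of duplicate plates.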

[2] = compound: Cn1c(Nc2ccc(C(F)(F)F)cc2)nc2cc(Oc3ccnc(-c4ncc(C(F)(F)F)[nH]4)c3)ccc21 [RAF265] + N=C(N)NC(=N)NCCc1ccccc1 [Phenformin] (partner 250 µM)
Outline: as §1

[3] = compound: Cn1c(Nc2ccc(C(F)(F)F)cc2)nc2cc(Oc3ccnc(-c4ncc(C(F)(F)F)[nH]4)c3)ccc21 [RAF265] + COc1cc2c(Oc3ccc(NC(=O)C4(C(=O)Nc5ccc(F)cc5)CC4)cc3F)ccnc2cc1OCCCN1CCOCC1 [Foretinib] (partner 0.25 µM)
Outline: as §1

[4] = compound: Cc1ccc(-n2nc(C(C)(C)C)cc2NC(=O)Nc2ccc(OCCN3CCOCC3)c3ccccc23)cc1 [Doramapimod] + Nc1nc2[nH]cc(CCc3ccc(C(=O)N[C@@H](CCC(=O)O)C(=O)O)cc3)c2c(=O)[nH]1 [Pemetrexed] (partner 0.2 µM)
Outline: as §1

UMC-11 was tested, and the relative viability ([1]; first compound 0.02 µM) was 0.49, the relative viability ([1]; first compound 0.06325 µM) was 0.385 and the relative viability ([1]; first compound 0.2 µM) was 0.472. The relative viability ([1]; first compound 0.6325 µM) was 0.438, the relative viability ([1]; first compound 2 µM) was 0.444 and the relative viability ([2]; first compound 0.01 µM) was 0.354. For the same cell line, the relative viability ([2]; first compound 0.03162 µM) was 0.332, the relative viability ([2]; first compound 0.1 µM) was 0.32 and the relative viability ([2]; first compound 0.3162 µM) was 0.318. The relative viability ([2]; first compound 1 µM) was 0.259, the relative viability ([3]; first compound 0.01 µM) was 1.02 and the relative viability ([3]; first compound 0.03162 µM) was 1.05. The relative viability ([3]; first compound 0.1 µM) was 0.972, the relative viability ([3]; first compound 0.3162 µM) was 0.992 and the relative viability ([3]; first compound 1 µM) was 0.926. The relative viability ([4]; first compound 0.02 µM) was 0.711, the relative viability ([4]; first compound 0.06325 µM) was 0.739 and the relative viability ([4]; first compound 0.2 µM) was 0.75. It also gave a relative viability ([4]; first compound 0.6325 µM) of 0.708 and a relative viability ([4]; first compound 2 µM) of 0.743.
